Experimental data taken from US7968566B2, “Pyrrolo(2,3-b) pyridine derivatives, the preparation and the pharmaceutical use thereof in the form of kinase inhibitors” (Aventis Pharma S.A., priority 2004, dated 2011).

Row | Compound | melting point
1 | COc1cc2c(-c3cc4c(Cl)ccnc4[nH]3)cn(CCN3CCOCC3)c2cc1OC [Example 99, 4-chloro-2-[5,6-dimethoxy-1-(2-morpholin-4-ylethyl)-1H-indol-3-yl]-1H-pyrrolo[2,3-b]pyridine] | 240 °C
2 | COc1cc2c(-c3cc4c(Cl)ccnc4[nH]3)cn(CCN3CCC(CCO)CC3)c2cc1OC [Example 100, 2-(1-{2-[3-(4-chloro-1H-pyrrolo[2,3-b]pyridin-2-yl)-5,6-dimethoxyindol-1-yl]ethyl}piperidin-4-yl)ethanol] | 200 °C
3 | COc1cc2c(-c3cc4c(Cl)ccnc4[nH]3)cn(CCN3CCN(C)CC3)c2cc1OC [Example 101, 4-chloro-2-{5,6-dimethoxy-1-[2-(4-methylpiperazin-1-yl)ethyl]-1H-indol-3-yl}-1H-pyrrolo[2,3-b]pyridine] | 192 °C
4 | COc1cc2c(-c3cc4c(C#N)ccnc4[nH]3)cn(CCN3CCN(C)CC3)c2cc1OC [Example 102, 2-{5,6-dimethoxy-1-[2-(4-methylpiperazin-1-yl)ethyl]-1H-indol-3-yl}-1H-pyrrolo[2,3-b]pyridine-4-carbonitrile] | 196 °C
5 | COc1cc2c(-c3cc4cc(Cl)cnc4[nH]3)cn(C)c2cc1OC [Example 103, 5-chloro-2-(5,6-dimethoxy-1-methyl-1H-indol-3-yl)-1H-pyrrolo[2,3-b]pyridine] | 192 °C
6 | COc1cc2c(-c3cc4cc(F)cnc4[nH]3)cn(C)c2cc1OC [Example 104, 2-(5,6-dimethoxy-1-methyl-1H-indol-3-yl)-5-fluoro-1H-pyrrolo[2,3-b]pyridine] | 283 °C
7 | COc1cc2c(-c3cc4cc(F)cnc4[nH]3)cn(CCN3CCOCC3)c2cc1OC [Example 105, 2-[5,6-dimethoxy-1-(2-morpholin-4-ylethyl)-1H-indol-3-yl]-5-fluoro-1H-pyrrolo[2,3-b]pyridine] | 205 to 210 °C
8 | COc1cc2c(-c3cc4cc(F)cnc4[nH]3)cn(CCN3CCN(C)CC3)c2cc1OC [Example 106, 2-{5,6-Dimethoxy-1-[2-(4-methylpiperazin-1-yl)ethyl]-1H-indol-3-yl}-5-fluoro-1H-pyrrolo[2,3-b]pyridine] | 188 °C
9 | COc1cc(OC)c2c(c1)c(-c1cc3cccnc3[nH]1)cn2C [Example 175, 2-(5,7-Dimethoxy-1-methyl-1H-indol-3-yl)-1H-pyrrolo[2,3-b]pyridine] | 220 °C
